From article PMC10044120, “Potent and selective covalent inhibition of the papain-like protease from SARS-CoV-2” (Nature Communications, 2023)
Where “and” joins values, the source holds several entries; their conditions need not be identical. Equal values may be shown once. Read-outs that look alike come from different tables or passages of the source.

What was measured:
[1] = in vitro; settings: African green monkey; for viability at 48 h, 2.08 µM / viability at 48 h, 8.33 µM / viability at 48 h, 16.65 µM / viability at 48 h, 16.67 µM / viability at 48 h, 33.33 µM: cytotoxicity, %cell viability
[2] = tested on: SARS-CoV-2 isolate USA-WA1/2020; test: microbe, parasite or virus in culture; settings: for inhibition at 2.08 µM: Severe acute respiratory syndrome coronavirus 2, Vero C1008, read-out: cytopathic effect, % cell viability, [inhibitor] 2.08 uM; for inhibition at […]: Severe acute respiratory syndrome coronavirus 2, Vero C1008, read-out: cytopathic effect, % cell viability
[3] = tested on: Vero E6 cells; settings: African green monkey, 48 h
[4] = tested on: SARS-CoV-2 isolate USA-WA1/2020; settings: for inhibition: read-out: cytopathic effect, % cell viability, duplicate wells; for EC50 (cytopathic effect): SARS-CoV-2-infected Vero E6 cells, 48 h
[5] = target: T1, PLpro from SARS-CoV-2 (Severe acute respiratory syndrome coronavirus 2, UniProt P0DTD1); test: biochemical; format: biochemical; settings: for remaining activity at 100 µM: inhibitor 100.00 uM; for remaining activity at […]: read-out: % Plpro activity; for IC50: after 30-min incubation, purified PLpro, Z-RLRGG-AMC substrate; for remaining activity at 0.2 µM: inhibitor 0.20 uM; for remaining activity at 6.34 µM: inhibitor 6.34 uM; for remaining activity at 20 µM: inhibitor 20.00 uM; for remaining activity at 200 µM: inhibitor 200.00 uM; for remaining activity at 0.06 µM: inhibitor 0.06 uM
[6] = target: T1, PLpro from SARS-CoV-2; test: biochemical; format: biochemical; parameters: mean (kobs plot, Supplementary Figure 6 II): unit: min^-1; settings: for Time dep. (time-dependent inhibition): fluorogenic peptide assay, varied preincubation time

COC(=O)CCc1ccccc1C(=O)N[C@H](C)c1cccc2ccccc12 [Compound 3, methyl (R)−3-(2-((1-(naphthalen-1-yl)ethyl)carbamoyl)phenyl)propanoate]
viability at 48 h, 2.08 µM [1]: 105% | viability at 48 h, 8.33 µM [1]: 93.2% | viability at 48 h, 16.65 µM [1]: 92% | inhibition at 2.08 µM ([2]; duplicate wells): 7.81% | cytotoxicity, %cell viability ([3]; 2.08 µM): 99.61% | cytotoxicity, %cell viability ([3]; 8.33 µM): 97.36% | cytotoxicity, %cell viability ([3]; 16.65 µM): 90.64% | inhibition ([4]; [inhibitor] 2.08 uM, 2.08 µM): 8.63% | remaining activity at 100 µM ([5]; 0.5 h): 78.6% | remaining activity at […] ([5]; 0.5 h): 119% and 108%

C[C@@H](NC(=O)c1ccccc1CCC(=O)NN)c1cccc2ccccc12 [Compound 5, (R)-2-(3-hydrazineyl-3-oxopropyl)-N-(1-(naphthalen-1-yl)ethyl)benzamide]
viability at 48 h, 2.08 µM [1]: 101% | viability at 48 h, 8.33 µM [1]: 97% | viability at 48 h, 16.65 µM [1]: 94.8% | inhibition at […] [2]: 11.2% | inhibition at 2.08 µM ([2]; duplicate wells): 11.2% | inhibition at 8.33 µM ([2]; Severe acute respiratory syndrome coronavirus 2, Vero C1008, read-out: cytopathic effect, % cell viability, [inhibitor] 8.33 uM, duplicate wells): 8.24% | inhibition at 16.65 µM ([2]; Severe acute respiratory syndrome coronavirus 2, Vero C1008, read-out: cytopathic effect, % cell viability, [inhibitor] 16.65 uM, duplicate wells): 2.95% | cytotoxicity, %cell viability ([3]; 2.08 µM): 100.12% | cytotoxicity, %cell viability ([3]; 8.33 µM): 100.79% | cytotoxicity, %cell viability ([3]; 16.65 µM): 89.16% | inhibition ([4]; [inhibitor] 2.08 uM, 2.08 µM): 7.12% | inhibition ([4]; [inhibitor] 8.33 uM, 8.33 µM): 8.31% | inhibition ([4]; [inhibitor] 16.65 uM, 16.65 µM): 2.6% | Time dep. (time-dependent inhibition) [6]: No | remaining activity at 19.5 µM ([5]; 0.5 h, inhibitor 19.50 uM): 46.4% | remaining activity at 100 µM ([5]; 0.5 h): 13.9% | remaining activity at […] ([5]; 0.5 h): 103% and 109% | IC50 [5]: 24 µM

C[C@@H](NC(=O)c1ccccc1CCC(=O)NNC(=O)CC#N)c1cccc2ccccc12 [Compound 11, (R)-2-(3-(2-(2-cyanoacetyl)hydrazineyl)-3-oxopropyl)-N-(1-(naphthalen-1-yl)ethyl)benzamide]
viability at 48 h, 2.08 µM [1]: 101% | viability at 48 h, 8.33 µM [1]: 94% | viability at 48 h, 16.67 µM [1]: 88.6% | viability at 48 h, 33.33 µM [1]: 80.8% | inhibition at […] [2]: 9.7% | inhibition at 2.08 µM ([2]; duplicate wells): 8% | cytotoxicity, %cell viability ([3]; 2.08 µM): 98.90% | cytotoxicity, %cell viability ([3]; 8.33 µM): 91.20% | cytotoxicity, %cell viability ([3]; 16.67 µM): 87.90% | cytotoxicity, %cell viability ([3]; 33.33 µM): 80.50% | EC50 (cytopathic effect) [4]: No CPE | inhibition ([4]; [inhibitor] 2.08 uM, 2.08 µM): 4.7% | Time dep. (time-dependent inhibition) [6]: not and No | remaining activity at 0.02 µM ([5]; 0.5 h, inhibitor 0.02 uM): 84.4% | remaining activity at 0.2 µM ([5]; 0.5 h): 89.9% | remaining activity at 2.01 µM ([5]; 0.5 h, inhibitor 2.01 uM): 71.3% | remaining activity at 6.34 µM ([5]; 0.5 h): 46.4% | remaining activity at 20 µM ([5]; 0.5 h): 41.4% | remaining activity at 200 µM ([5]; 0.5 h): 5.83% | IC50 [5]: 8 µM

C#CC(=O)NNC(=O)CCc1ccccc1C(=O)N[C@H](C)c1cccc2ccccc12 [Compound 12, (R)-N-(1-(naphthalen-1-yl)ethyl)-2-(3-oxo-3-(2-propioloylhydrazineyl)propyl)benzamide]
CC50 at 48 h ([1]; CC50): 1000 to 5000 nM | viability at 48 h, 8.33 µM [1]: 0.83% | viability at 48 h, 16.67 µM [1]: 0.57% | viability at 48 h, 33.33 µM [1]: 1.02% | inhibition at […] [2]: 6.23% | cytotoxicity, %cell viability ([3]; 16.67 µM): 0.55% | cytotoxicity, %cell viability ([3]; 33.33 µM): 0.51% | EC50 (cytopathic effect) [4]: No CPE | kinact/KI [6]: 4100 M⁻¹ s⁻¹ | remaining activity at 0.2 µM ([6]; 5 min, read-out: PLpro activity after preincubation, inhibitor 0.2 uM, preincubation 5 min): 80% | remaining activity at 0.5 µM ([6]; 5 min, read-out: PLpro activity after preincubation, inhibitor 0.5 uM, preincubation 5 min): 68.1% | remaining activity at 0.6 µM ([6]; 5 min, read-out: PLpro activity after preincubation, inhibitor 0.6 uM, preincubation 5 min): 59% | remaining activity at 0.7 µM ([6]; 5 min, read-out: PLpro activity after preincubation, inhibitor 0.7 uM, preincubation 5 min): 46.3% | remaining activity at 0.2 µM ([6]; 10 min, read-out: PLpro activity after preincubation, inhibitor 0.2 uM, preincubation 10 min): 69.8% | remaining activity at 0.5 µM ([6]; 10 min, read-out: PLpro activity after preincubation, inhibitor 0.5 uM, preincubation 10 min): 40.2% | remaining activity at 0.6 µM ([6]; 10 min, read-out: PLpro activity after preincubation, inhibitor 0.6 uM, preincubation 10 min): 41.8% | remaining activity at 0.7 µM ([6]; 10 min, read-out: PLpro activity after preincubation, inhibitor 0.7 uM, preincubation 10 min): 29.5% | remaining activity at 0.2 µM ([6]; 0.5 h, read-out: PLpro activity after preincubation, inhibitor 0.2 uM, preincubation 30 min): 87.5% | remaining activity at 0.3 µM ([6]; 0.5 h, read-out: PLpro activity after preincubation, inhibitor 0.3 uM, preincubation 30 min): 71% | remaining activity at 0.5 µM ([6]; 0.5 h, read-out: PLpro activity after preincubation, inhibitor 0.5 uM, preincubation 30 min): 14.4% | remaining activity at 0.7 µM ([6]; 0.5 h, read-out: PLpro activity after preincubation, inhibitor 0.7 uM, preincubation 30 min): 7.89% | remaining activity at 0.2 µM ([6]; 1 h, read-out: PLpro activity after preincubation, inhibitor 0.2 uM, preincubation 60 min): 83.5% | remaining activity at 0.6 µM ([6]; 1 h, read-out: PLpro activity after preincubation, inhibitor 0.6 uM, preincubation 60 min): 2.72% | remaining activity at 0.2 µM ([6]; […], read-out: PLpro activity after preincubation, inhibitor 0.2 uM, preincubation 15 min): 82% | remaining activity at 0.2 µM ([6]; […], read-out: PLpro activity after preincubation, inhibitor 0.2 uM, preincubation 45 min): 75.3% | remaining activity at 0.2 µM ([6]; […], read-out: PLpro activity after preincubation, inhibitor 0.2 uM, preincubation 90 min): 60% | remaining activity at 0.3 µM ([6]; […], read-out: PLpro activity after preincubation, inhibitor 0.3 uM, preincubation 90 min): 15.6% | remaining activity at 0.5 µM ([6]; […], read-out: PLpro activity after preincubation, inhibitor 0.5 uM, preincubation 15 min): 34.6% | remaining activity at 0.5 µM ([6]; […], read-out: PLpro activity after preincubation, inhibitor 0.5 uM, preincubation 45 min): 1.63% | remaining activity at 0.6 µM ([6]; […], read-out: PLpro activity after preincubation, inhibitor 0.6 uM, preincubation 15 min): 27.5% | remaining activity at 0.7 µM ([6]; […], read-out: PLpro activity after preincubation, inhibitor 0.7 uM, preincubation 15 min): 17.8% | Time dep. (time-dependent inhibition) [6]: Time-dependent inhibition was observed and Yes | mean (kobs plot, Supplementary Figure 6 II) ([6]; inhibitor 0.20 uM): 0.0069 | mean (kobs plot, Supplementary Figure 6 II) ([6]; inhibitor 0.30 uM): 0.0173 | mean (kobs plot, Supplementary Figure 6 II) ([6]; inhibitor 0.5 uM): 0.0760 | mean (kobs plot, Supplementary Figure 6 II) ([6]; inhibitor 0.6 uM): 0.0965 | mean (kobs plot, Supplementary Figure 6 II) ([6]; inhibitor 0.7 uM): 0.1287 | remaining activity at 0.06 µM ([5]; 0.5 h): 75.9% | remaining activity at 0.2 µM ([5]; 0.5 h): 14.8% | remaining activity at 200 µM ([5]; 0.5 h): 2.39% | IC50 [5]: 0.098 µM

C[C@@H](NC(=O)c1ccccc1CCC(=O)NNC(=O)C(C#N)=CC1CC1)c1cccc2ccccc12 [Compound 13, (R)-2-(3-(2-(2-cyano-3-cyclopropylacryloyl)hydrazineyl)-3-oxopropyl)-N-(1-(naphthalen-1-yl)ethyl)benzamide]
viability at 48 h, 2.08 µM [1]: 83.5% | viability at 48 h, 16.67 µM [1]: 0.88% | cytotoxicity, %cell viability ([3]; 2.08 µM): 72.90% | cytotoxicity, %cell viability ([3]; 16.67 µM): 0.71% | EC50 (cytopathic effect) [4]: No CPE | Time dep. (time-dependent inhibition) [6]: not and No | remaining activity at 0.06 µM ([5]; 0.5 h): 101% | remaining activity at 0.2 µM ([5]; 0.5 h): 107% | remaining activity at 6.34 µM ([5]; 0.5 h): 109% | remaining activity at 20 µM ([5]; 0.5 h): 90.5% | IC50 [5]: > 200 µM

CCC(CC)COC(=O)[C@H](C)N[P@](=O)(OC[C@H]1O[C@@](C#N)(c2ccc3c(N)ncnn23)[C@H](O)[C@@H]1O)Oc1ccccc1 [remdesivir, reference compound]
EC50 ([2]; Severe acute respiratory syndrome coronavirus 2, Vero C1008, 48 h, read-out: EC50 (cytopathic effect)): 740 nM | viability at 5 µM ([2]; Severe acute respiratory syndrome coronavirus 2, Vero C1008, read-out: % cell viability, cytopathic effect, 5.00 uM): 102% | viability at 10 µM ([2]; Severe acute respiratory syndrome coronavirus 2, Vero C1008, read-out: % cell viability, cytopathic effect, 10.00 uM): 101% | inhibition at 5 µM ([2]; Severe acute respiratory syndrome coronavirus 2, Vero C1008, read-out: cytopathic effect, % cell viability, [inhibitor] 5.00 uM, duplicate wells): 102% | inhibition at 10 µM ([2]; Severe acute respiratory syndrome coronavirus 2, Vero C1008, read-out: cytopathic effect, % cell viability, [inhibitor] 10.00 uM, duplicate wells): 101% | % cell viability, cytopathic effect ([4]; 5.00 uM): 97.274% | % cell viability, cytopathic effect ([4]; 10.00 uM): 97.073% | inhibition ([4]; [inhibitor] 5.00 uM, 5 µM): 97.3% | inhibition ([4]; [inhibitor] 10.00 uM, 10 µM): 97.1%
